Entries after “also recorded” stand apart in the source; their conditions may differ. Read-outs that look alike come from different tables or passages of the source.

The subject of assay [1] is AMPT rat model of Parkinson's disease. The experiment in a line: AMPT rat model of Parkinson's disease (catalepsy descent latency and centre rearing counts). It counts as in vivo. The following applies: for Mean Catalepsy Descent Latency (s) / Mean Centre Rearing Counts: 8 h post AMPT; for reversal of AMPT induced deficits in mean centre rearing counts (in words) / reversal of AMPT induced catalepsy (in words): single oral dose 10 mg/kg, -16 or -1 hours. On the procedure:
AMPT is a competitive inhibitor of tyrosine hydroxylase. Rats dosed with >150 mg/kg AMPT develop parkinsonian-like behavior and locomotor deficits (e.g. catalepsy and reduced rearing activity) within hours owing to the depletion of striatal dopamine concentration as a consequence of the reduced flux through the dopamine synthetic pathway. […] Indian J. Exp. Biol. 41, 1264-1268).
The effect was compared with appropriate vehicle control groups (oral vehicle was 1% carboxymethylcellulose; CMC) and a group that received a 150 mg/kg i.p. dose of L-dopa.
Eight hours after AMPT (or vehicle) administration rats were assessed for catalepsy and centre rearing activity. During the catalepsy test, the front paws of the rat were placed over a horizontal bar suspended 9 cm off the floor. The time taken for the rat to get off the bar (descent latency) was measured with a maximum time of 3 minutes being allowed. Centre rearing counts were determined over a 1 hour monitoring period using an automated activity monitoring system (AM1053). This system used an array of infrared beams to determine the activity and mobility of each animal. Each cage had 48 infrared beams, 24 on each of two levels arranged in an 8×16, 1″ (25.4 mm) pitch grid. The lower grid measured horizontal x, y movement, whilst the upper grid measured rearing movement. The activity detector operated by counting the number of times the beams changed from unbroken to broken and then incrementing the relevant counters.
These groups were compared to a positive control group (6) dosed with 225 mg/kg AMPT i.p.+150 mg/kg L-dopa i.p. 6.5 hour post AMPT dose. L-dopa was administered with a peripheral dopa decarboxylase inhibitor (benserazide), at 100 mg/kg i.p.
In a second and third series of experiments, the efficacy of eight other HPPD inhibitor test compounds were assessed in the AMPT rat model of Parkinson's disease (Tables 1.5 & 1.6). Male Sprague-Dawley rats (300-350 g) were administered a single i.p. dose of 225 mg/kg AMPT and a single oral dose of 10 mg/kg of the HPPD inhibitor test compound was administered either 1 or 16 hours prior to (−16 or −1 hours) AMPT administration. Behavioral assessment (catalepsy and centre rearing counts) was conducted 8 hours post AMPT administration. The effect was compared with a vehicle control group and a group receiving AMPT alone.

The test system of assay [2] is plasma tyrosine. The experiment in a line: Plasma tyrosine concentration kinetic profile in the rat following a single oral dose. The format is in vivo. The following applies: for Plasma Tyrosine Concentration: single oral dose 10 mg/kg; for Plasma tyrosine: single oral dose 2.0 mg/kg. On the procedure:
The plasma tyrosine concentration kinetic profile in the rat was determined for each of the HPPD inhibitor test compounds by administering a single oral dose to 10-12 week old male Sprague Dawley rats. Compounds 3.20, 3.13 and 3.26 were dosed at 2 mg/kg in 1% carboxymethylcellulose (1% CMC) vehicle, whilst compounds 3.22, 3.12, 3.15, 3.18, 3.23, 3.21, 3.11, 3.01, 3.24 and 3.25 were administered at 10 mg/kg in 1% CMC.
Blood samples to determine plasma tyrosine concentration were obtained at frequent intervals during the first 24 hours post-dose, and at 48 hours post-dose. These samples were either compared with blood samples obtained from control rats which only received an equivalent volume of the vehicle, 1% CMC, or by comparison with control samples obtained from the rats 1 hour prior to dosing with test the compound. Prior to the analysis of the samples for plasma tyrosine concentration, the blood samples were centrifuged at 1800 g for 10 minutes at 4° C. The plasma was collected and then filtered through a centrifugal micro partition device at 1500 g for 30 minutes at 4° C. The filtered plasma was then divided into two aliquots and stored frozen at −70° C. for subsequent gradient reverse phase high performance liquid chromatographic (HPLC) analysis of plasma tyrosine. Aliquots of plasma were analysed by HPLC using a 250×4.6 mm Hichrom S5ODS2 column at 30° C., eluted with a mobile phase of water/acetonitrile/trifluoroacetic acid (950:50:2 v/v/v) at a flow rate of 1 ml/min. Detection was by a diode array detector at 274 nm. Appropriate tyrosine standards were run alongside the samples for calibration purposes.
The plasma tyrosine concentration kinetic profile for the test compounds 3.20, 3.13 and 3.26 are shown at the time points 1, 2, 4, 6, 12, 24 and 48 hours post-dose in Table 1.1. The data shown are the mean±standard deviation (n=4), except for the 6 hour time point where the data were obtained from n=3 rats for the control and 3.26 groups.
The plasma tyrosine concentration kinetic profile for the test compounds 3.22, 3.12, 3.15, 3.18, 3.23, 3.21, 3.11, 3.01, 3.24 and 3.25 are shown at the time points −1 hour (pre-dose control), 1, 3, 6, 12, 24 and 48 hours post-dose, in Tables 1.2 and 1.3. The data shown are the mean±standard deviation (n=3), except for the −1 hour time point with compound 3.23, where n=2 (Table 1.2), and for the 3 and 6 hour time points with compound 3.21, where n=2 (Table 1.3).

In assay [3] the target is T1, 4-hydroxyphenyl pyruvate dioxygenase (HPPD) (Rattus norvegicus, UniProt P32755).
T1 construct: rat liver cytosol (2.7 mg of protein/ml incubate); from tissue; host or cells: rat liver (cytosol, 110,000 g supernatant)
T1 sequence (P32755 whole entry): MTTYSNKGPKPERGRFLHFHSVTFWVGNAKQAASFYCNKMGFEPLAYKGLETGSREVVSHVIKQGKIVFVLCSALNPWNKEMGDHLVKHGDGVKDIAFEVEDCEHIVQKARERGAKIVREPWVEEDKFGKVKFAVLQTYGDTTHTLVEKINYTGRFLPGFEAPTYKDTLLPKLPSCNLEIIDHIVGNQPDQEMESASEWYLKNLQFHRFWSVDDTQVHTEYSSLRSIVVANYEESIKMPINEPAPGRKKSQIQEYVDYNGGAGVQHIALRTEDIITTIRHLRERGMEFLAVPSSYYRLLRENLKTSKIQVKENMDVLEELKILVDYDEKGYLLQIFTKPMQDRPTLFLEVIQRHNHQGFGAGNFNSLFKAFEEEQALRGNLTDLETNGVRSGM
The experiment in a line: Determination of 4-hydroxyphenyl pyruvate dioxygenase (HPPD) enzyme activity in vitro (rate of oxygen consumption, rat liver cytosol). It counts as biochemical. As to conditions: for inhibition at 0.1 µM: read-out: % Inhibition at 100 nM; for inhibition at 0.3 µM: read-out: % inhibition at 300 nM. On the procedure: The principle of the assay is that 4-hydroxyphenyl pyruvate dioxygenase (HPPD), an enzyme that participates in the catabolism of tyrosine, catalyses the oxidative decarboxylation and rearrangement of 4-hydroxyphenylpyruvate (HPPA) to homogentisate, with the incorporation of both atoms of molecular oxygen into the product.
Rat liver was homogenised in buffer of the following composition; 0.25 M Sucrose, 5.4 mM EDTA, 20 mM Tris base, pH 7.4, (25% homogenate) using 6 passes of a Potter type homogeniser. The homogenate was then centrifuged at 1,800 g for 10 minutes at 4° C., the pellet was discarded and the supernatant centrifuged at 17,000 g for a further 15 minutes at 4° C. The pellet was then discarded and the supernatant centrifuged at 110,000 g for 80 minutes at 4° C. The supernatant containing the HPPD enzyme from this 110,000 g spin was collected and stored frozen at −70° C. and used in the assays of the test compounds (see below).
Prior to the start of the enzymatic reaction by the addition of HPPA substrate, the enzyme and test compound (inhibitor) were incubated together for 3 minutes.
In cases where the effects of several concentrations of an inhibitor were investigated, an IC50 value (the half-maximal inhibitory concentration of test compound) was determined by plotting the data using a non-linear regression curve-fitting program using a GraphPad Prism™ software package.
Data are expressed as mean values from two experiments except where indicated. Where appropriate the values are expressed as the mean±standard deviation.

Where [4] appears, read: Table 1.5: 225 mg/kg AMPT i.p. + 10 mg/kg oral at -16 hours.
Setting [5] is: Table 1.6: 225 mg/kg AMPT i.p. + 10 mg/kg oral at -16 hours.

Turning to `Cc1cc(C(=O)C2=C([O-])CCCC2=O)c(C)c2c1S(=O)(=O)CCC21OCCO1.[K+]` [Compound 3.11], the “Mean Catalepsy Descent Latency (s)” value in assay [1] (setting [4]) was 9 ± 2.7^+++ s. Also, the “Mean Centre Rearing Counts” value in assay [1] (setting [4]) was determined as 303 ± 53 counts. In addition, the “reversal of AMPT induced deficits in mean centre rearing counts (in words)” value (“reversal of AMPT induced deficits” for short) in assay [1] is recorded as “either partially or completely reversing”. Besides, in assay [1] (10 mg/kg), the “reversal of AMPT induced catalepsy (in words)” value is on record as “substantially reversed; also recorded: effective in reversing”. The “Plasma Tyrosine Concentration” value worked out at 193 ± 22.9 nmol/mL in assay [2] (1 hour post-dose); 338 ± 48.9 nmol/mL in assay [2] (3 hours post-dose); 551 ± 80.7 nmol/mL in assay [2] (6 hours post-dose); 1041 ± 106.0 nmol/mL in assay [2] (12 hours post-dose); 2125 ± 65.8 nmol/mL in assay [2] (24 hours post-dose); 993 ± 260.6 nmol/mL in assay [2] (48 hours post-dose). Also, in assay [3], the inhibition at 0.1 µM was 9%. For the same compound, in assay [3], the inhibition at 0.3 µM is 45%.

On to `Cc1c(C(=O)C2C=NN(C)C2=O)ccc(S(C)(=O)=O)c1C1=NOCC1` (stereo not shown) [Compound 3.20], for which the “Mean Catalepsy Descent Latency (s)” value in assay [1] (setting [5]) is listed as 8 ± 1.8^+++ s. In addition, the “Mean Centre Rearing Counts” value in assay [1] (setting [5]) is 409 ± 50^+++ counts. Also, in assay [1] (10 mg/kg), the “reversal of AMPT induced catalepsy (in words)” value is given as “substantially reversed; also recorded: effective in reversing”. For the same compound, in assay [1] (10 mg/kg), the “reversal of AMPT induced deficits” value is “reached statistical significance; also recorded: either partially or completely reversing”. In addition, the “Plasma tyrosine” value in assay [2] (1 hour post-dose) worked out at 169 ± 13.6 nmol/mL; in assay [2] (2 hours post-dose), 231 ± 30.2 nmol/mL; in assay [2] (4 hours post-dose) it was 353 ± 50.9 nmol/mL; in assay [2] (6 hours post-dose), 479 ± 40.0 nmol/mL; in assay [2] (12 hours post-dose) it was 796 ± 44.3 nmol/mL; in assay [2] (24 hours post-dose), 745 ± 171.8 nmol/mL. Further, the “Plasma tyrosine” value in assay [2] (48 hours post-dose) is 96 ± 1.7 nmol/mL. The inhibition at 0.1 µM in assay [3] came to 57%.

For `CS(=O)(=O)c1cc(C(F)(F)F)ccc1C(=O)c1cnoc1C1CC1` [Compound 3.01], in assay [1] (Table 1.6: 225 mg/kg AMPT i.p. + 10 mg/kg oral at -1 hour), the “Mean Centre Rearing Counts” value was 88 ± 26 counts. Also, the “reversal of AMPT induced deficits” value in assay [1] is reported as “either partially or completely reversing”. Also, in assay [1] (10 mg/kg), the “reversal of AMPT induced catalepsy (in words)” value is recorded as “substantially reversed; also recorded: effective in reversing”. For the same compound, the “Plasma Tyrosine Concentration” value in assay [2] (1 hour post-dose) came to 160 ± 7.4 nmol/mL; in assay [2] (3 hours post-dose), 276 ± 12.9 nmol/mL; in assay [2] (6 hours post-dose) it was 445 ± 32.9 nmol/mL; in assay [2] (12 hours post-dose), 666 ± 16.1 nmol/mL; in assay [2] (24 hours post-dose), 264 ± 23.5 nmol/mL; in assay [2] (48 hours post-dose) it was 110 ± 23.9 nmol/mL. Moreover, the inhibition at 0.1 µM in assay [3] was found to be 8%. The inhibition at 0.3 µM in assay [3] was found to be 36%.

Take `CC1(C)C(=O)C(C(=O)c2ccc(C(F)(F)F)cc2[N+](=O)[O-])C(=O)C(C)(C)C1=O` [Compound 3.23]: in assay [1] (setting [4]), the “Mean Catalepsy Descent Latency (s)” value is on record as 10 ± 3.0^+++ s. For the same compound, the “Mean Centre Rearing Counts” value in assay [1] (setting [4]) came out at 273 ± 63 counts. In addition, in assay [1], the “reversal of AMPT induced deficits” value is “either partially or completely reversing”. Moreover, the “reversal of AMPT induced catalepsy (in words)” value in assay [1] (10 mg/kg) was “substantially reversed; also recorded: effective in reversing”. The “Plasma Tyrosine Concentration” value in assay [2] (1 hour post-dose) was found to be 173 ± 22.0 nmol/mL; in assay [2] (3 hours post-dose) it was 307 ± 28.0 nmol/mL; in assay [2] (6 hours post-dose), 502 ± 37.5 nmol/mL; in assay [2] (12 hours post-dose) it was 1041 ± 88.5 nmol/mL; in assay [2] (24 hours post-dose), 1835 ± 444.1 nmol/mL; in assay [2] (48 hours post-dose), 299 ± 202.8 nmol/mL. In addition, in assay [3] (100 nM test compound, rat liver cytosol, 3 min pre-incubation), the inhibition at 0.1 µM was found to be 24%.

Broadly, the inhibition is the change of the read-out against control, counted positive when it falls.

(Values after patent US20090326072A1, “USE OF 2-(2-NITRO-4-TRIFLUOROMETHYLBENZOYL)-l,3- CYCLOHEXANEDIONE IN THE TREATMENT OF PARKINSON'S DISEASE” (priority 2005, published 2009).)
